Reference: PMC8957877, “The Resistance of Cancer Cells to Palbociclib, a Cyclin-Dependent Kinase 4/6 Inhibitor, is Mediated by the ABCB1 Transporter” (Frontiers in Pharmacology, 2022)

Assays:
[1] = molecular target: T1, ABCB1 transporter (Homo sapiens, UniProt P08183); assay: biochemical
[2] = molecular target: T1, ABCB1 transporter

T1 sequence (P08183 whole entry): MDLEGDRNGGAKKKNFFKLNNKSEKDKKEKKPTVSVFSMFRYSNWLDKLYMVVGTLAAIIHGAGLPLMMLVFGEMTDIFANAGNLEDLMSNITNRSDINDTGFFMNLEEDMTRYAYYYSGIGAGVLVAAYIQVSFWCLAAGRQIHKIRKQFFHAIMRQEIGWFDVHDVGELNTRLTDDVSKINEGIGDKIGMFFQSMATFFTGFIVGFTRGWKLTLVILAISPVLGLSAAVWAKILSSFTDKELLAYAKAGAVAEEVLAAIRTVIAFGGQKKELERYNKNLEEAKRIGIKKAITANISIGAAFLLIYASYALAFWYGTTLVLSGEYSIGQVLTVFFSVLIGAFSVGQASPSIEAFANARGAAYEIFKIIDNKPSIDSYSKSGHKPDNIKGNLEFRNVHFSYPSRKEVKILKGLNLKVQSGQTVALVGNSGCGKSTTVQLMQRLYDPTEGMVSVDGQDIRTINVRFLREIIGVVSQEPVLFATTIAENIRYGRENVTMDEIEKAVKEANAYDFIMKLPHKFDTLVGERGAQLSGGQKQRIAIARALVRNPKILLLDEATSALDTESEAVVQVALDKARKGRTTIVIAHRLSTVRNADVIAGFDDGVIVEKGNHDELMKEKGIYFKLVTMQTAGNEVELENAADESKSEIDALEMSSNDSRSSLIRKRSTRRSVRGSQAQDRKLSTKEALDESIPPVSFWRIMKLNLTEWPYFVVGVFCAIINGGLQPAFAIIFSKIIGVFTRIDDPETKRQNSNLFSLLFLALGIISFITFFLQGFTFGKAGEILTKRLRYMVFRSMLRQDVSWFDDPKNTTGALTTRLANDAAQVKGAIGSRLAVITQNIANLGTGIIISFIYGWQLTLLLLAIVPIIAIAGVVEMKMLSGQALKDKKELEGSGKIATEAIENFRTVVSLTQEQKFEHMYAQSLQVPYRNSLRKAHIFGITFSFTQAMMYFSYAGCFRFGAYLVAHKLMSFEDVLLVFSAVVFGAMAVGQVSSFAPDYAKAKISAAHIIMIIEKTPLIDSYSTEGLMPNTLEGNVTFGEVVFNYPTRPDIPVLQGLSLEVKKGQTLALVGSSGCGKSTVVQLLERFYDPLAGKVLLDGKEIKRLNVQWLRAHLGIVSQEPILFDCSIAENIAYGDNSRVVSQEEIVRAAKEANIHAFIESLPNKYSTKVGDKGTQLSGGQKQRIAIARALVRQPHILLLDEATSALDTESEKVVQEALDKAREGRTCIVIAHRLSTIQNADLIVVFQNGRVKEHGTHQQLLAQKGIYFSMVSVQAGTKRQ

Compound | EC50 [1] | radiolabelled substrate accumulation/efflux in ABCB1-overexpressing KB-C2 vs par [2]
CC(=O)c1c(C)c2cnc(Nc3ccc(N4CCNCC4)cn3)nc2n(C2CCCC2)c1=O [palbociclib] | 4.73 µM | 
CC(=O)O[C@H]1C(=O)[C@@]2(C)[C@H]([C@H](OC(=O)c3ccccc3)[C@]3(O)C[C@H](OC(=O)[C@H](O)[C@@H](NC(=O)c4ccccc4)c4ccccc4)C(C)=C1C3(C)C)[C@]1(OC(C)=O)CO[C@@H]1C[C@@H]2O [[^3H]-paclitaxel] |  | significantly greater than that of KB-C2 drug-resistant cancer cell line, due to an increase in the extrusion of [^3H]-paclitaxel
